Assay results as given in patent US8026276B2, “Parenteral CCI-779 formulations containing cosolvents, an antioxidant, and a surfactant” (Wyeth LLC, priority 2002, dated 2011).

Columns and labels:
[1] = system: human tumor xenografts; conditions: nude mice; cited from earlier work
[2] = Solubility of CCI-779; format: physicochemical
Method: A primary obstacle towards the formulation of CCI-779 as a parenteral dosage form is the poor aqueous solubility, which is less than 1 μg/ml. The drug is a non-electrolyte and approaches such as pH adjustment and salt formation are not useful for improving the aqueous solubility. […] These include ethanol, propylene glycol, polyethylene glycol and dimethylacetamide. Two problems or limitations exist with respect to the formulation of CCI-779 in these organic solvents. First, chemical instability has been noted in virtually all solvents. The instability can be due to oxidative degradation of CCI-779 or to cleavage of a lactone bond, resulting in the formation of the ring opened seco-CCI-779. Second, formulations of CCI-779 in organic solvents will precipitate upon dilution with aqueous infusion solutions, such as 0.9% Sodium Chloride Injection or 5% Dextrose Injections, or with blood. This is a primary limitation to the use of water miscible organic solvents, also referred to as cosolvents, when used as vehicles for highly water-insoluble compounds.

[3] = Stability of CCI-779 in solution with chelating agent; format: physicochemical; conditions: citric acid at less than 0.01% w/v
Excerpt: In some embodiments, components with chelating activity are included in the formulations of the invention as the sole “antioxidant component”. Typically, such metal-binding components, when acting as chelating agents are used in the lower end of the range of concentrations for the antioxidant component provided herein. […] Additionally, such chelating agents may be used in combination with other antioxidants as part of the antioxidant component of the invention. For example, an acceptable formulation may contain both citric acid and d,l-α-tocopherol. Optimal concentrations for the selected antioxidant(s) can be readily determined by one of skill in the art, based upon the information provided herein.

[4] = system: histologically diverse tumor cells; conditions: cited from earlier work

- solubility in water-miscible organic solvents ([2]; ethanol, propylene glycol, polyethylene glycol, dimethylacetamide): soluble
- solubility in pharmaceutically acceptable vegetable oils ([2]; vegetable oils): poor solubility
- solubility ([2]; water, read-out: aqueous solubility): < 1 µg/mL
- effect of citric acid on stability of CCI-779 [3]: enhanced the stability
SMILES: CO[C@H]1C[C@@H]2CC[C@@H](C)[C@@](O)(O2)C(=O)C(=O)N2CCCC[C@H]2C(=O)O[C@H]([C@H](C)C[C@@H]2CC[C@@H](OC(=O)C(C)(CO)CO)[C@H](OC)C2)CC(=O)[C@H](C)/C=C(\C)[C@@H](O)[C@@H](OC)C(=O)[C@H](C)C[C@H](C)/C=C/C=C/C=C/1C [CCI-779, rapamycin 42-ester with 3-hydroxy-2-(hydroxymethyl)-2-methylpropionic acid]
- activity against human tumor xenografts [1]: has activity
- growth of tumor cells in vitro [4]: inhibit the growth
